Results on 6 molecules are retold here after patent US7498404B2, “Compositions, methods and uses for a novel family of peptides” (priority 2004, dated 2009).

In data set [1] the target is Module 8 A-domain protein (Brevibacillus texasporus, UniProt Q2VQ14). As to the kind of experiment: ATP-PPi exchange assay, Module 8 A-domain. It counts as biochemical. The settings on record: 0.5 mM amino acid, 2 μM protein, 37° C., 15 min. The protocol:
(§1) Cloning, overexpression, and purification of His10-tagged BT A-domain proteins. DNA fragments encoding the A-domains of the BT NRPS Modules 8, 5, 7, 4 and 2 (Bt8A, Bt5A, Bt7A, Bt4A and Bt2A) were PCR-amplified and the PCR products were inserted into the His10-tag recombinant protein expression vector pET16b (Novagen). The A-domain borders were determined as defined by (Konz, et al., 1999). The expression constructs were transformed into the E.coli BL21 -AI strain (Invitrogen). Transformants were grown in L-broth at 37° C. to an A600 of 0.6 and then induced with 1 mM IPTG (isopropyl-β-D-thiogalactopyranoside) plus 0.2% L-arabinose. The cells were allowed to grow for two additional hours at 30° C. before being harvested. Purification of the His10-tag recombinant proteins was achieved using the TALON metal affinity resins (BD Biosciences) under conditions recommended in the manual with modifications. Briefly, the E. coli cells were broken by sonication. Cell lysates were cleared by centrifugation at 25,000× g for one hour. […] Eluted proteins were dialyzed against a buffer (50 mM HEPES, pH 8.0, 100 mM sodium chloride, 10 mM magnesium chloride, and 1 mM EDTA) and then analyzed with SDS PAGE plus Coomassie Blue staining. […] Concentrations of the purified proteins were determined by using the calculated molar extinction coefficient for the A280.
(§2) ATP-PPi exchange assay. […] The charcoal/water suspension was added to a scintillation vial containing 5.0 ml of scintillation fluid, and the bound radioactivity was determined by liquid scintillation counting. […]
(§3) Since a purified recombinant A-domain of an NRPS module can selectively and efficiently activate the cognate amino acid substrate of the NRPS module in an ATP-PPi exchange assay (Konz, et al., 1999; Mootz & Marahiel, 1997), ATP-PPi exchange assays have been used to experimentally establish NRPS module specificities and novel NRPS codons. […] A-domain specificities were determined in ATP-PPi exchange and aa Km assays (see Methods and Materials), and the results are shown in FIG. 5. […]

The target of data set [2] is Module 5 A-domain protein (Brevibacillus texasporus, UniProt Q2VQ15). As to the kind of experiment: ATP-PPi exchange assay, Module 5 A-domain. It counts as biochemical. As to conditions: 0.5 mM amino acid, 0.2 μM protein, 37° C., 15 min. The protocol: as §1, §2, §3
Data set [3] concerns the target Module 4 A-domain protein (Brevibacillus texasporus, UniProt Q2VQ15). As to the kind of experiment: ATP-PPi exchange assay, Module 4 A-domain. It counts as biochemical. As to conditions: 0.5 mM amino acid, 0.2 μM protein, 37° C., 15 min. The protocol:
as §1, §2, §3

Data set [4] has as its system Module 2 A-domain protein. Nature of the data set: ATP-PPi exchange assay, Module 2 A-domain. It counts as biochemical, Brevibacillus texasporus. The settings on record: 0.5 mM amino acid, 37° C., 15 min. The protocol:
Cloning, overexpression, and purification of His10-tagged BT A-domain proteins. DNA fragments encoding the A-domains of the BT NRPS Modules 8, 5, 7, 4 and 2 (Bt8A, Bt5A, Bt7A, Bt4A and Bt2A) were PCR-amplified and the PCR products were inserted into the His10-tag recombinant protein expression vector pET16b (Novagen). The A-domain borders were determined as defined by (Konz, et al., 1999). The expression constructs were transformed into the E.coli BL21 -AI strain (Invitrogen). Transformants were grown in L-broth at 37° C. to an A600 of 0.6 and then induced with 1 mM IPTG (isopropyl-β-D-thiogalactopyranoside) plus 0.2% L-arabinose. The cells were allowed to grow for two additional hours at 30° C. before being harvested. Purification of the His10-tag recombinant proteins was achieved using the TALON metal affinity resins (BD Biosciences) under conditions recommended in the manual with modifications. Briefly, the E. coli cells were broken by sonication. Cell lysates were cleared by centrifugation at 25,000× g for one hour. His-tagged recombinant proteins were then incubated with the TALON resin, washed, and eluted with 500 mM imidazole. Eluted proteins were dialyzed against a buffer (50 mM HEPES, pH 8.0, 100 mM sodium chloride, 10 mM magnesium chloride, and 1 mM EDTA) and then analyzed with SDS PAGE plus Coomassie Blue staining. […] Concentrations of the purified proteins were determined by using the calculated molar extinction coefficient for the A280.
ATP-PPi exchange assay. ATP-PPi exchange assays were performed to determine the substrate specificity of an A-domain. ATP-PPi exchanges were assayed as previously described (Stachelhaus, et al., 1998) with minor modifications. The assay mixture contained 50 mM HEPES (pH 8.0), 100 mM NaCl, 10 mM MgCl2, 2 mM ATP, 0.5 mM amino acid, 0.05 mM PPi, 0.15 μCi tetrasodium [^32P]pyrophosphate. Exchange was initiated by addition of purified recombinant A-domain proteins to a total volume of 0.1 ml. The protein concentrations were 0.2 μM for Module 4 and Module 5 A-domains while 2 μM for Module 7 and Module 8 A-domains. After incubation at 37° C. for 15 min, the reaction was stopped by addition of 0.5 ml of Termination Mix (100 mM tetrasodium pyrophosphate, 3.5% HClO4, and 1.6% [w/v] activated charcoal). The charcoal was pelleted by centrifugation, washed first with 40 mM pyrophosphate plus 1.4% perchloric acid and then with water, and was re-suspended in 0.5 ml of water. The charcoal/water suspension was added to a scintillation vial containing 5.0 ml of scintillation fluid, and the bound radioactivity was determined by liquid scintillation counting. The apparent Km values were determined with substrate concentrations ranging from 0.1 to 10 mM.
Since a purified recombinant A-domain of an NRPS module can selectively and efficiently activate the cognate amino acid substrate of the NRPS module in an ATP-PPi exchange assay (Konz, et al., 1999; Mootz & Marahiel, 1997), ATP-PPi exchange assays have been used to experimentally establish NRPS module specificities and novel NRPS codons. Recombinant A-domains of Modules 8, 5, 7 ,4 and 2 of the BT NRPS were produced and purified as described in Methods and Materials. Almost completely soluble recombinant A-domain proteins were obtained. A-domain specificities were determined in ATP-PPi exchange and aa Km assays (see Methods and Materials), and the results are shown in FIG. 5. […]

Another data set has as its system straight run broilers. Nature of the data set: Growth promoting Studies 3-1 and 3-2, pelleted starter feed, batteries. It counts as in vivo, chicken. The settings on record: BT1583 12 ppm, BMD 50 ppm, COB 90 ppm, alone or combined; for 20-day cumulative weight gain, Mean: Table 18; for 21-day cumulative weight gain, estimated marginal Mean: Table 20; for 21-day cumulative weight gain, Duncan homogeneous subsets: Table 21; for 20-day cumulative feed conversion rate, Duncan homogeneous subsets: Table 25. The text has this: Eight (8) study repetitions per treatment were used, again with 4 birds per pen.

Substrate in data set [5]: CC(C)[C@H](N)C(=O)O
As to the kind of experiment: ATP-PPi exchange assay, Module 5 A-domain. The settings on record: other: substrate 0.1 to 10 mM; pH 8.0. It counts as biochemical, Brevibacillus texasporus. The protocol: as §1, with “harvested.” for “harvested. Purification of the His10-tag recombinant proteins was achieved using the TALON metal affinity resins (BD Biosciences) under conditions recommended in the manual with modifications. Briefly, the E. coli cells were broken by sonication. Cell lysates were cleared by centrifugation at 25,000× g for one hour.”
as §2

Substrate in data set [6]: CC[C@H](C)[C@H](N)C(=O)O
As to the kind of experiment: ATP-PPi exchange assay, Module 5 A-domain. It counts as biochemical, Brevibacillus texasporus. As to conditions: other: substrate 0.1 to 10 mM; pH 8.0. As for the experimental part:
as §1, with “harvested.” for “harvested. Purification of the His10-tag recombinant proteins was achieved using the TALON metal affinity resins (BD Biosciences) under conditions recommended in the manual with modifications. Briefly, the E. coli cells were broken by sonication. Cell lysates were cleared by centrifugation at 25,000× g for one hour.”
as §2

Substrate in data set [7]: CC[C@H](C)[C@H](N)C(=O)O
Nature of the data set: ATP-PPi exchange assay, Module 4 A-domain. It counts as biochemical, Brevibacillus texasporus. The settings on record: other: substrate 0.1 to 10 mM; pH 8.0. The protocol:
as §1, with “harvested.” for “harvested. Purification of the His10-tag recombinant proteins was achieved using the TALON metal affinity resins (BD Biosciences) under conditions recommended in the manual with modifications. Briefly, the E. coli cells were broken by sonication. Cell lysates were cleared by centrifugation at 25,000× g for one hour.”
as §2

Substrate in data set [8]: CC(C)[C@H](N)C(=O)O
As to the kind of experiment: ATP-PPi exchange assay, Module 8 A-domain. It counts as biochemical, Brevibacillus texasporus. As to conditions: other: substrate 0.1 to 10 mM; pH 8.0. The protocol:
as §1, with “harvested.” for “harvested. Purification of the His10-tag recombinant proteins was achieved using the TALON metal affinity resins (BD Biosciences) under conditions recommended in the manual with modifications. Briefly, the E. coli cells were broken by sonication. Cell lysates were cleared by centrifugation at 25,000× g for one hour.”
as §2

As to `CC(C)[C@H](N)C(=O)O` [L-Val], the “relative substrate activation (highest activity defined as 100%)” value in data set [1] amounted to 100%; in data set [2] it was 100%; in [3], 9%; in data set [4], 67%.

Take `CC[C@@]1([C@@H]2O[C@@H]([C@H]3O[C@@](O)(CO)[C@H](C)C[C@@H]3C)C[C@@H]2C)CC[C@H]([C@]2(C)CC[C@]3(C[C@H](O)[C@@H](C)[C@@H]([C@@H](C)[C@@H](OC)[C@H](C)C(=O)O)O3)O2)O1` [Monensin, reference compound]: in the data set on straight run broilers, the “20-day cumulative weight gain, Mean” value is listed as 792.8438; the “21-day cumulative weight gain, estimated marginal Mean” value is listed as 792.844; the “21-day cumulative weight gain, Duncan homogeneous subsets” value came to 792.8438; the “20-day cumulative feed conversion rate, Duncan homogeneous subsets” value is listed as 1.3712.

In the case of Bacitracin MD [BMD, reference compound], in the data set with straight run broilers, the “20-day cumulative weight gain, Mean” value is 832.9688; the “21-day cumulative weight gain, estimated marginal Mean” value was 832.969; the “21-day cumulative weight gain, Duncan homogeneous subsets” value was 832.9688; the “20-day cumulative feed conversion rate, Duncan homogeneous subsets” value is 1.3397.

B1: Module 5 A-domain protein (Brevibacillus texasporus) (protein)
chain: DKTIHQQFEQKVEENPDQIALLFKDKEITYGQLNAKANQFARVLRKHGVQPDQVVGLITDRSIEMMIGILAILKAGGAYLPIDPSYPLERITYMLEDSQAQLLIVQEAAMIPEGYQGKVLLLAEECWMQEEASNLELINDAQDLAYVMYTSGSTGKPKGNLTTHQNILRTIINNGFIEIVPADRLLQLSNYAFDGSTFDIYSALLNGATLVLVPKEVMLNPMELARIVREQDITVSFMTTSLFHTLVELDVTSMKSIRKVVFGGEKASYKHVEKALDYLGEGRLVNGYGPTETTVFATTYTVDSSIKETGIVPIGRPLNNTSVYILNENNQPQPIGVPGELCVGGAGIARGYLNRPELTAERFVDNPFLVGDRMYRTGDMARFLPDGNIEYIGRMDEQVKIRGHRIELGEIEKSLLEYPAISEAVLVAKRDEQGHSYLCAYVVSTDQWTVAKVRQHILEALPEYMVPSYFVELEKLPLTSNGKVDKRALPEPDRVITNEYV
B1: the Km (usually the substrate concentration at which the rate is half of its maximum) in data set [5] was 1.11 mM; in data set [6] it was 2.78 mM.

B2: Module 4 A-domain protein (Brevibacillus texasporus) (protein)
chain: QLFEEQVDKNPNQIALVFKEEKLTYGEVNAKANQLAYVLRKQGVQPNDVIGIITERSPEMIIGILAIFKAGGAYMPIDPSYPAERIQYMLQDNQTKLLLVQKQEMIPANYQGEVLFLTQESWMHEETSNPAHITQAQALAYVMYTSGSTGEPKGILTTHQNIMKTVIHNGYVEITPGDCLSQLSNYAFDGSTFEIYGALLHGATLLLVTKEAVLNMNELARLIKKEQVTVSFMTTALFNTLVDLDITCFQSIRKVLFGGELASVKHVLKALDYLGEHRVINVYGPTETTVYATYYSVDHSMLTRASVPIGRPINNTKAYIVNTDGQPQPIGVVGELCIGGEGVACGYLNRPELTKKHFVDNPFVLGERMYCTGDLARFLPDGNIEYIGRMDEQVKIRGHRIELGEIEKVLLQHPAISETVLLAKRDEQGHSYLCAYIVGQVFWTVTELRQHLMESLPEYMVPSYFIEIEKLPLTANGKVDKRALPEPDRKMGSAYV
Take B2: the Km in data set [7] was 0.5 mM.

B3: Module 8 A-domain protein (Brevibacillus texasporus) (protein)
chain: ALVFGEAQLTYRELNEKANQMARGLRKQGVLPDQVIGLLTDRSLEMIIAILAIFKAGGAYMPIDPSYPSERIQYMLADSRTHLLLVQKAEMIPANYQGEVLLLTEDSWMDENTDNLDLVNQAQDLAYVMYTSGSTGKPKGNLTTHQNIVKTIMNNGYMEITPNDRLLQLSNYAFDGSTFDIYSALLNGASLILVPTHVLMNPTDLASVIQDQHITVSFMTTSLFNTLVELDVTSLKHMRKVVFGGEKASIKHVEKALDYLGAGRLVNGYGPTETTVFATTYTVDHTIKETGIMPIGRPLNNTKVFILGADNQLQPIGALGELCVSGEGLARGYLNLPELTADRFVENPFMRGERMYRTGDLARWLPDGSIEYVGRIDEQVKIRGHRIELGEIEARLLEHPAISETVLLAKQDEQGHSFLCAYLVTNGAWSVAELRKHIKETLPDSMVPSYFIEIDKMPLTSNGKADKRALPEPDVQQVSSY
B3: in [8], the Km is on record as 2.75 mM.
